Results taken from paper PMC5428333, “Novel protein acetyltransferase, Rv2170, modulates carbon and energy metabolism in Mycobacterium tuberculosis” (Scientific Reports, 2017).

Molecular target: T1, ICDH1 (Rv3339c) (Mycobacterium tuberculosis, UniProt P9WKL1)
T1 construct: gene icd-1
Assay: NADPH formation at […] nm
Format: biochemical
Conditions: 2 mM NADP+, 0.25 mM DL-isocitrate, 10 mM MgCl2, 5 mM MnCl2, 20 mM Tris-HCl pH 7.5, room temperature

T1 sequence (P9WKL1 whole entry): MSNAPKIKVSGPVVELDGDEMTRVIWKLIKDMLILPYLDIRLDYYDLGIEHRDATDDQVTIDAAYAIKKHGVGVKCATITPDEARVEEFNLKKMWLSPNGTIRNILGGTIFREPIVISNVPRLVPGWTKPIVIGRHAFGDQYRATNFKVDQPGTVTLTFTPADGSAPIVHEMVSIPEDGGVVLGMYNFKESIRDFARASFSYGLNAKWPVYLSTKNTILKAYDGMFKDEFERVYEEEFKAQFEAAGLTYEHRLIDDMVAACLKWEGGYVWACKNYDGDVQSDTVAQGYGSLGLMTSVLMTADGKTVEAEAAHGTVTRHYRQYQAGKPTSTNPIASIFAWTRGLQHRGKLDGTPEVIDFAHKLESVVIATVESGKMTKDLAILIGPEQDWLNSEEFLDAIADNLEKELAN

NC(=O)c1ccc[n+]([C@@H]2O[C@H](COP(=O)(O)OP(=O)(O)OC[C@H]3O[C@@H](n4cnc5c(N)ncnc54)[C@H](OP(=O)(O)O)[C@@H]3O)[C@@H](O)[C@H]2O)c1 [NADP^+]
NADPH formation at 340 nm: monitoring the time dependent reduction of NADP^+ to NADPH
